Broadly, the IC50 is the concentration needed to halve the response being measured.

For one assay, the target named is T1, TEC (Homo sapiens, UniProt P42680).
T1 sequence (P42680 1-631): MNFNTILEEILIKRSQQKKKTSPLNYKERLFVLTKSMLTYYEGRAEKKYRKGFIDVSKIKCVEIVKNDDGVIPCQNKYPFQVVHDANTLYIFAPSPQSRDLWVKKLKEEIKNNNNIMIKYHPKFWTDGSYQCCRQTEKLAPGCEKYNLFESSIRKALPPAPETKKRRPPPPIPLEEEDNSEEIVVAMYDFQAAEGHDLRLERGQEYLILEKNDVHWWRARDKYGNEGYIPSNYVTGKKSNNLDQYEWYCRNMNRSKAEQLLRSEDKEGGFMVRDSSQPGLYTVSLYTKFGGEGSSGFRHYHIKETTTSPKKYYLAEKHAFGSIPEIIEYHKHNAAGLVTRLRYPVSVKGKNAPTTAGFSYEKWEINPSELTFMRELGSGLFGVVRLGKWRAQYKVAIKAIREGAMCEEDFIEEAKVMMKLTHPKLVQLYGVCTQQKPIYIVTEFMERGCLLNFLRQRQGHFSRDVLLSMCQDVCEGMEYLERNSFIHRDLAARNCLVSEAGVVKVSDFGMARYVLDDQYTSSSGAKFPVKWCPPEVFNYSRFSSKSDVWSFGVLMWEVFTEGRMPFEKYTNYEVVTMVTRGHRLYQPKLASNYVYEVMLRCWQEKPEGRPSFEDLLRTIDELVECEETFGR
The assay is described as follows: Caliper-based kinase assay, off-target TEC. The format is biochemical. Conditions: Cys-481 homologous kinase panel. The text has this: (§1) A Caliper-based kinase assay (Caliper Life Sciences, Hopkinton, Mass.) was used to measure inhibition of kinase activity of compounds of the present disclosure. […]

A further assay deals with BLK (Homo sapiens, UniProt P51451). The assay is described as follows: Caliper-based kinase assay, off-target BLK. The format is biochemical. Conditions: Cys-481 homologous kinase panel.
Chain of BLK (P51451 whole entry): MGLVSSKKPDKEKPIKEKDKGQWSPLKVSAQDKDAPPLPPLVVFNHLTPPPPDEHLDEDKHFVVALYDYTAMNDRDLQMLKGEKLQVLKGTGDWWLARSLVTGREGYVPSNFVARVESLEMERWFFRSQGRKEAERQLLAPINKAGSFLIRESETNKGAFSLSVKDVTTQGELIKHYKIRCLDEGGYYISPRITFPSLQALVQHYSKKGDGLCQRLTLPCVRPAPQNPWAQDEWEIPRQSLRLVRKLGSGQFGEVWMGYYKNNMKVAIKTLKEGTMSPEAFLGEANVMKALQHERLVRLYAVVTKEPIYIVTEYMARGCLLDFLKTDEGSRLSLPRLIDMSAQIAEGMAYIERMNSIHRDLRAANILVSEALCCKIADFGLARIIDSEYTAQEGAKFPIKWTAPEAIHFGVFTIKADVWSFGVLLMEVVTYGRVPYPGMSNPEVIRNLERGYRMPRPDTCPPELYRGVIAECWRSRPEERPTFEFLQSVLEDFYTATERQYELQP
Text: as §1

The target in the next assay is T2, BMX (Homo sapiens, UniProt P51813).
T2 sequence (P51813 1-675): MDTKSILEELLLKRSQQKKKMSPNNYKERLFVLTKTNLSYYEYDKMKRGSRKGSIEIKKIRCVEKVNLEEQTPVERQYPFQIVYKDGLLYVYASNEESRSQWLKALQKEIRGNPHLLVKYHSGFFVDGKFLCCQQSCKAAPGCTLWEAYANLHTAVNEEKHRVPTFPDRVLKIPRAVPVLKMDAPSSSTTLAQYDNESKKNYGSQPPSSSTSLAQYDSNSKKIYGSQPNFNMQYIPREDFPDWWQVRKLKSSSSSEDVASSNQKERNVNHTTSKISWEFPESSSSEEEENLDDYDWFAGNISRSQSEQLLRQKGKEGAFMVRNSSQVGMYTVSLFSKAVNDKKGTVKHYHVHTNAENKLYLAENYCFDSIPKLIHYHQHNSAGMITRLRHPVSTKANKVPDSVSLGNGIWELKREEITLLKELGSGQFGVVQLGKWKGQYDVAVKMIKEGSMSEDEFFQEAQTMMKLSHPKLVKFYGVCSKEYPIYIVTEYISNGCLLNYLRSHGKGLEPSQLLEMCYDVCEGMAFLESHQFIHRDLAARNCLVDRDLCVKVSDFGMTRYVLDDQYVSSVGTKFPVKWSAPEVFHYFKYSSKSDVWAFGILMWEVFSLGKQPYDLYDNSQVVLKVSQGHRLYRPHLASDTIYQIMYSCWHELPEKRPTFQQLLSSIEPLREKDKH
Kind of assay: Caliper-based kinase assay, off-target BMX. As to conditions: Cys-481 homologous kinase panel. It is filed as biochemical.
Text: as §1

The target in a further assay is HER4 (Homo sapiens, UniProt Q15303). Kind of assay: Caliper-based kinase assay, off-target HER4. The format is biochemical. Conditions: Cys-481 homologous kinase panel.
Chain of HER4 (Q15303 26-1308): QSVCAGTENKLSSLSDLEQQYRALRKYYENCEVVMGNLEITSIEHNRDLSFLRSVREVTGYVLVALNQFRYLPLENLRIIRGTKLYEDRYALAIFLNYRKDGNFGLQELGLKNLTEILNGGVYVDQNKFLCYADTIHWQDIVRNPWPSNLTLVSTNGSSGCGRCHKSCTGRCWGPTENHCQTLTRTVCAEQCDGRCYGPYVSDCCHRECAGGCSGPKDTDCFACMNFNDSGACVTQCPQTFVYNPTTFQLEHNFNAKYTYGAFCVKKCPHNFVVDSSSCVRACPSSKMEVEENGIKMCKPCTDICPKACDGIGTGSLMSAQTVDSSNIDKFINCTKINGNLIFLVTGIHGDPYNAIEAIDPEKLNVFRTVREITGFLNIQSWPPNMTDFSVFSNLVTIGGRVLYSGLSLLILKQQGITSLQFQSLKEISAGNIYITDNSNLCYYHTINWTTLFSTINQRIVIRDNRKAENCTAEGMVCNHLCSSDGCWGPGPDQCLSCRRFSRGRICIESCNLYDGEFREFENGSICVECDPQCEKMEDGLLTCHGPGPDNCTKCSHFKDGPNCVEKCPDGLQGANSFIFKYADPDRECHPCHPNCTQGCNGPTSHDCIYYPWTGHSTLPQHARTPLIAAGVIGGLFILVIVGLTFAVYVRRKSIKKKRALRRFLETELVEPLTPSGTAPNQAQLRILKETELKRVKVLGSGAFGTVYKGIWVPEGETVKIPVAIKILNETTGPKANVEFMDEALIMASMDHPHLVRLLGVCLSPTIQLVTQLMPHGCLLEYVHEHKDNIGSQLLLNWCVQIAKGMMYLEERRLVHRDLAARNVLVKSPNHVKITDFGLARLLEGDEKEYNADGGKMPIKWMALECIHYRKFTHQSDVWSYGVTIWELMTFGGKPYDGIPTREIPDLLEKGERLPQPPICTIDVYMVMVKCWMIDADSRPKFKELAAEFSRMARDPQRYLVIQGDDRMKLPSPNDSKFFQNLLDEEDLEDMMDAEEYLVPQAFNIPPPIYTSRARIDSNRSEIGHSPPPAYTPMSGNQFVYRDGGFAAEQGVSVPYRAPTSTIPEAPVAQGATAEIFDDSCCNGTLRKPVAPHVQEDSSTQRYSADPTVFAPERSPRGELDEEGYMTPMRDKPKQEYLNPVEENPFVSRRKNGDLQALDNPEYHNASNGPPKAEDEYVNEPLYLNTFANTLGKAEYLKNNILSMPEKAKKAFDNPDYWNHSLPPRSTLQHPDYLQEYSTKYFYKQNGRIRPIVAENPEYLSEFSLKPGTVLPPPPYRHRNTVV
Text: as §1

Assay [1] relates to liver cancer cell line HepG2. The assay is described as follows: HepG2 in vitro liver toxicity assay (ATPlite). The format is cell-based. As to conditions: Homo sapiens, HepG2, about 72 hours incubation. The method, then:
Cell antiproliferation is assayed by PerkinElmer ATPlite™ Luminescence Assay System. Briefly, the liver cancer cell line HepG2 are plated at a density of about 1×10^4 cells per well in Costar 96-well plates, and are incubated with different concentrations of compounds for about 72 hours in medium supplemented with 5% FBS. One lyophilized substrate solution vial is then reconstituted by adding 5 mL of substrate buffer solution, and is agitated gently until the solution is homogeneous. About 50 μL of mammalian cell lysis solution is added to 100 μL of cell suspension per well of a microplate, and the plate is shaken for about five minutes in an orbital shaker at −700 rpm. This procedure is used to lyse the cells and to stabilize the ATP. Next, 50 μL substrate solution is added to the wells and microplate is shaken for five minutes in an orbital shaker at −700 rpm. Finally, the luminescence is measured by a PerkinElmer TopCount® Microplate Scintillation Counter. Such assays, carried out with a range of doses of test compounds, allow the determination of the cellular anti-antiproliferative IC50 of the compounds of the present invention.
On the technique in general: In ATP-based viability assays light output follows the ATP content of the culture.

The target in another assay is EGFR (Homo sapiens, UniProt P00533). The assay is described as follows: Caliper-based kinase assay, off-target EGFR. The format is biochemical. As to conditions: Cys-481 homologous kinase panel.
Chain of EGFR (P00533 25-1210): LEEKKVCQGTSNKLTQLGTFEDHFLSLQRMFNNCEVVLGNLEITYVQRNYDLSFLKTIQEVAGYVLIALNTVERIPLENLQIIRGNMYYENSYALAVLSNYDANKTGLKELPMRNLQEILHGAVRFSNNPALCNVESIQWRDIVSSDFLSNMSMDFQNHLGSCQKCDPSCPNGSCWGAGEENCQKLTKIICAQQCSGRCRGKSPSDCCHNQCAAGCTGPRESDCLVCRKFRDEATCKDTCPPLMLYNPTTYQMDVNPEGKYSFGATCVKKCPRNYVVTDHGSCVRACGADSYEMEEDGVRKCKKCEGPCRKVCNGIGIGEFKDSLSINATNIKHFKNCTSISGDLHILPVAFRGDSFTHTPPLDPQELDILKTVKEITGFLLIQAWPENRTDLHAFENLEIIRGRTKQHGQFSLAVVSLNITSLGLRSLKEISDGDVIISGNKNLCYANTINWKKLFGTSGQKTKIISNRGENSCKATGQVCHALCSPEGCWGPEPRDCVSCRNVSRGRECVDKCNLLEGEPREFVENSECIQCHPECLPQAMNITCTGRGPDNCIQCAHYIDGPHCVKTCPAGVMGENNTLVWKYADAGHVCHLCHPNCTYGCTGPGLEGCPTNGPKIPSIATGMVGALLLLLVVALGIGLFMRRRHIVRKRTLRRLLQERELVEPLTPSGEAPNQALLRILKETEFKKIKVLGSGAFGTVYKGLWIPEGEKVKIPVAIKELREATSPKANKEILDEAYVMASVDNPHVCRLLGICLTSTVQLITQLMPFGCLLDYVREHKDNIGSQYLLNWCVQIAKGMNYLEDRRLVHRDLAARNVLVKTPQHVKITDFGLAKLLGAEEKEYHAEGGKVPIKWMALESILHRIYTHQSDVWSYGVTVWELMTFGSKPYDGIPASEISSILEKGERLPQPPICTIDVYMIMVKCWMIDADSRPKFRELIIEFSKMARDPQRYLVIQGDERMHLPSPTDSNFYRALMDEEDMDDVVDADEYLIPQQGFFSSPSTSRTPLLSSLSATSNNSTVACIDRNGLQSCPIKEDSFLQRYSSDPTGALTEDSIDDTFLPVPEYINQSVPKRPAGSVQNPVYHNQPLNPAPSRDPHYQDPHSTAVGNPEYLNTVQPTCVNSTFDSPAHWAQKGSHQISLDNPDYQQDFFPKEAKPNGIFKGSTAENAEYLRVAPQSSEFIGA
Text: as §1

A further assay deals with HER2 (Homo sapiens, UniProt P04626). Kind of assay: Caliper-based kinase assay, off-target HER2. It is filed as biochemical. As to conditions: Cys-481 homologous kinase panel.
Chain of HER2 (P04626 23-1255): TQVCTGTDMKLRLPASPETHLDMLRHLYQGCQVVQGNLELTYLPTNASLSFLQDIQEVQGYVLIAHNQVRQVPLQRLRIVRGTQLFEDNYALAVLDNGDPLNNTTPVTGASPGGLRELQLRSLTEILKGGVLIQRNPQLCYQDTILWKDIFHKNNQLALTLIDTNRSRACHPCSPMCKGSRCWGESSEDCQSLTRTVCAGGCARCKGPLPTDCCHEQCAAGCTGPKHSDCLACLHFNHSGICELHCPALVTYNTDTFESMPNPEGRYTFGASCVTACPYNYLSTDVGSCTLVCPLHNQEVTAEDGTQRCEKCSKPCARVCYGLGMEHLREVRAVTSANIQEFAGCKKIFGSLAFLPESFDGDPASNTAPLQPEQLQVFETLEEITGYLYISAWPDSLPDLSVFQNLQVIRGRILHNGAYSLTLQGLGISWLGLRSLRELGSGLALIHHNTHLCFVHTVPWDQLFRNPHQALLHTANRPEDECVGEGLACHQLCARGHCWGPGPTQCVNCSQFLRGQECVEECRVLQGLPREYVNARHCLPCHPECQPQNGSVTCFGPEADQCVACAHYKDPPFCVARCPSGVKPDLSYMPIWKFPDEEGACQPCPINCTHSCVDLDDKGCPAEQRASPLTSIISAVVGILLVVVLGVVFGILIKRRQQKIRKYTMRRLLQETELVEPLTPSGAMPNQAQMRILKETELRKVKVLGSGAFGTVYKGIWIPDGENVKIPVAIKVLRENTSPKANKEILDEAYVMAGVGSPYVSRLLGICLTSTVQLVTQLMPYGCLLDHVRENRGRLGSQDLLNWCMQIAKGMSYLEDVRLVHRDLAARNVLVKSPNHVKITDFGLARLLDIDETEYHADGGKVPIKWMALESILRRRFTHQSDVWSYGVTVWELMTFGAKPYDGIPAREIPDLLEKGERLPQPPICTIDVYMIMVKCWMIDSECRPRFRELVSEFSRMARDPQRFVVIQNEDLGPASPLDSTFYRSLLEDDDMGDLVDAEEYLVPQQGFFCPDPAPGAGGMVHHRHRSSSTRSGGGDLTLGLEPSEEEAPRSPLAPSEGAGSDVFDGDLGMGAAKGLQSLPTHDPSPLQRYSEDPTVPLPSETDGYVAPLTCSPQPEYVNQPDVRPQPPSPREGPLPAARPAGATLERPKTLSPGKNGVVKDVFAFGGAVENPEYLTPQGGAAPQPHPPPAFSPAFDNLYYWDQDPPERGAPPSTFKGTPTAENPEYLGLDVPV
Text: as §1

In the next assay the target is T3, TXK (Homo sapiens, UniProt P42681).
T3 sequence (P42681 1-527): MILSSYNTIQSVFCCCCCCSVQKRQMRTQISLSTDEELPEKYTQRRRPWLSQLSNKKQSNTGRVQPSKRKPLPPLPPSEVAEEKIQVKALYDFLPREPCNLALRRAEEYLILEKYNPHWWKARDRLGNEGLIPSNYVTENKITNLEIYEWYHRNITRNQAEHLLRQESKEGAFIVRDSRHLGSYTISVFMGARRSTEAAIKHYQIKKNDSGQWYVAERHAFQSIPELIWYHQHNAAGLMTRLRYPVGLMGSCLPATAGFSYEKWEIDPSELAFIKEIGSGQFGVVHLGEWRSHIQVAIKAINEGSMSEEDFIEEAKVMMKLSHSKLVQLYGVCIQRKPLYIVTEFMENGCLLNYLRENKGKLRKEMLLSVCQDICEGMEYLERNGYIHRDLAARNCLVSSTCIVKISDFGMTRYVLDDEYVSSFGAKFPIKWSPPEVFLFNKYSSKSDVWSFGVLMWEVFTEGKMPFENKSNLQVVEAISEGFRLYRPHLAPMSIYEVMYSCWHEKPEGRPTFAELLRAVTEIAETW
Kind of assay: Caliper-based kinase assay, off-target TXK. The format is biochemical. As to conditions: Cys-481 homologous kinase panel.
Text: as §1

Structures are written as SMILES. Read-outs that look alike come from different tables or passages of the source.

Take `C=CC(=O)Nc1cc(Nc2nc(-c3ccnc(N4CCn5c(cc6c5CC(C)(C)C6)C4=O)c3CO)cn(C)c2=O)ccc1N1CCN(C2CCOCC2)C[C@H]1C(F)(F)F` [Example 48-S, N-(5-[[6-(2-[4,4-dimethyl-9-oxo-1,10-diazatricyclo[6.4.0.0^[2,6]]dodeca-2(6),7-dien-10-yl]-3-(hydroxymethyl)pyridin-4-yl)-4-methyl-3-oxopyrazin-2-yl]amino]-2-[(2S)-4-(oxan-4-yl)-2-(trifluoromethyl)piperazin-1-yl]phenyl)prop-2-enamide]: the IC50 at TEC was 0.153 µM; at BLK, more than 1 µM; against BMX, 0.155 µM; against HER4, more than 1 µM; in assay [1] (read-out: HepG2 IC50) it was 64.5 µM; on EGFR, more than 1 µM. Also, the IC50 against HER2 and at TXK was more than 1 µM each time.

For `C=CC(=O)Nc1cc(Nc2nc(-c3ccnc(N4CCc5c(sc6c5CCCC6)C4=O)c3CO)cn(C)c2=O)ccc1N1CCN(C2CCOCC2)C[C@H]1C(F)(F)F` [Example 55-S, N-[5-([6-[3-(hydroxymethyl)-2-[6-oxo-8-thia-5-azatricyclo[7.4.0.0^[2,7]]trideca-1(9), 2(7)-dien-5-yl]pyridin-4-yl]-4-methyl-3-oxopyrazin-2-yl]amino)-2-[(2S)-4-(oxan-4-yl)-2-(trifluoromethyl)piperazin-1-yl]phenyl]prop-2-enamide], the IC50 against TEC is 0.686 µM; at BLK it was more than 1 µM; against BMX, 0.183 µM; against HER4, more than 1 µM; in assay [1] (read-out: HepG2 IC50) it was 197 µM; in assay [1] (another experiment, read-out: HepG2 IC50 (another experiment)) it was more than 200 µM. Further, the IC50 on EGFR, against HER2 and against TXK was more than 1 µM throughout.

For `CC(C)(/C=C(\C#N)C(=O)N1CCC[C@@H](n2nc(-c3ccc(Oc4ccccc4)cc3F)c3c(N)ncnc32)C1)N1CCN(C2COC2)CC1` [PRN-1008, reference compound], the IC50 turned out to be 0.00067 µM against TEC; 0.0031 µM at BLK; 0.00036 µM at BMX; 0.0031 µM at HER4; 39.6 µM in assay [1] (read-out: HepG2 IC50); 0.268 µM on EGFR. Further, the IC50 against HER2 is more than 1 µM; against TXK it was 0.00048 µM.

For the origin of these results see patent US20220363689A1, “INHIBITOR OF BTK AND MUTANTS THEREOF” (Newave Pharmaceutical Inc., priority 2019, published 2022).
